Test results published in patent US10144742B2 (Millennium Pharmaceuticals, Inc., priority 2014, dated 2018).

Tests used:
[1] = target: hNAMPT protein (Homo sapiens (Human), UniProt P43490); experiment: NAMPT enzyme assay (TR-FRET/HTRF, BodiPY ligand, anti 6His-Tb); assay type: binding; conditions: for IC50: NAMPT IC50 range class, read-out: IC50; for inhibition at 1 µM: compound concentration 1 μM, read-out: Percent Inhibition
In short: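 Compound or DMSO was incubated for 1 h at room temperature, protected from light, with BodiPY ligand and hNAMPT labelled by terbium anti-6His antibody. The 520 nm to 486 nm emission ratio after 320 nm excitation gave inhibition versus vehicle, from which concentration-response curves yielded IC50.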

[2] = system: PC3 cells; experiment: PC3 growth inhibition (Cell-titer glo, 72 hours); assay type: cell-based; conditions: Homo sapiens, PC-3; compound concentration 1.667 μM; PC3 cells, 72 hours, Cell-titer glo; read-out: Percent Inhibition (PC3 growth inhibition)
In short: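 Compounds in AIM serum-free medium were applied for 72 h at 37 °C, 5% CO2 to PC3 cells plated overnight from RPMI1640 culture. Luminescence after 10 min CellTiter-Glo, normalised to DMSO, gave % viability at 1 μM or 1.667 μM, or GI50/LD50.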

Sequence of hNAMPT protein (P43490 whole entry): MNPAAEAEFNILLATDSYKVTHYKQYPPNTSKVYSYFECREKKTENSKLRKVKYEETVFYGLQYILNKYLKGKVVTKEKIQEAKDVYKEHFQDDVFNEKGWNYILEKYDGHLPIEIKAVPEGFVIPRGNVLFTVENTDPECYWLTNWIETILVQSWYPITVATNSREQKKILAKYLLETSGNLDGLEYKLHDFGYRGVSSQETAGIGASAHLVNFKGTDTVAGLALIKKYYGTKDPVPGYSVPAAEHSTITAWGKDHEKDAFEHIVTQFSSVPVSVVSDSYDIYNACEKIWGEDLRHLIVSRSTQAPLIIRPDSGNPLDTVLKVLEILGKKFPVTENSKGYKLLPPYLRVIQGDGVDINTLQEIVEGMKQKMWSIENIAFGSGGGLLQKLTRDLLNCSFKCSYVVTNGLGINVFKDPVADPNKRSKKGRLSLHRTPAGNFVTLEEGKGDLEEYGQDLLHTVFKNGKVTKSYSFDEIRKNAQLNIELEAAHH

SMILES	IC50 [1]	inhibition at 1 µM [1]	inhibition at 1.667 µM [2]
O=C(NCCCc1ncc[nH]1)c1ccc2nc(-c3ccc(F)cc3)c(-c3cc(F)ccc3F)nc2c1 [Compound I-319, 3-(2,5-difluorophenyl)-2-(4-fluorophenyl)-N-[3-(1H-imidazol-2-yl)propyl]quinoxaline-6-carboxamide]	< 100 nM	94%	3%
O=C(NCCCc1ncc[nH]1)c1ccc2nc(-c3ccc(F)cc3)c(-c3ccc4c(c3)OCCO4)nc2c1 [Compound I-320, 3-(2,3-dihydro-1,4-benzodioxin-6-yl)-2-(4-fluorophenyl)-N-[3-(1H-imidazol-2-yl)propyl]quinoxaline-6-carboxamide]	500 to 1000 nM	63%	3%
Cn1cc(CCOc2nc3ccc(C(=O)NCCCc4ncc[nH]4)cc3nc2-c2ccc(F)cc2)cn1 [Compound I-321, 3-(4-fluorophenyl)-N-[3-(1H-imidazol-2-yl)propyl]-2-[2-(1-methyl-1H-pyrazol-4-yl)ethoxy]quinoxaline-6-carboxamide]	< 100 nM	> 99%	2%
O=C(NCCCc1ncc[nH]1)c1ccc2nc(OCCO)c(-c3ccc(F)cc3)nc2c1 [Compound I-322, 3-(4-fluorophenyl)-2-(2-hydroxyethoxy)-N-[3-(1H-imidazol-2-yl)propyl]quinoxaline-6-carboxamide]	< 100 nM	96%	2%
O=C(NCCCc1ncc[nH]1)c1ccc2nc(OCC3CCCCO3)c(-c3ccc(F)cc3)nc2c1 (stereo not drawn) [Compound I-323, 3-(4-fluorophenyl)-N-[3-(1H-imidazol-2-yl)propyl]-2-(tetrahydro-2H-pyran-2-ylmethoxy)quinoxaline-6-carboxamide]	< 100 nM	99%	3%
O=C(NCCCc1ncc[nH]1)c1ccc2nc(-n3ccnc3)c(-c3ccc(F)cc3)nc2c1 [Compound I-324, 3-(4-fluorophenyl)-2-(1H-imidazol-1-yl)-N-[3-(1H-imidazol-2-yl)propyl]quinoxaline-6-carboxamide]	500 to 1000 nM	57%	3%
O=C(NCCCc1ncc[nH]1)c1ccc2nc(-c3ccc(F)cc3)c(-c3cncs3)nc2c1 [Compound I-325, 2-(4-fluorophenyl)-N-[3-(1H-imidazol-2-yl)propyl]-3-(1,3-thiazol-5-yl)quinoxaline-6-carboxamide]	< 100 nM	> 99%	4%
O=C(NCCCc1ncc[nH]1)c1ccc2nc(OCc3ccsc3)c(-c3ccc(F)cc3)nc2c1 [Compound I-326, 3-(4-fluorophenyl)-N-[3-(1H-imidazol-2-yl)propyl]-2-(3-thienylmethoxy)quinoxaline-6-carboxamide]	< 100 nM	92%	3%
CN1CCC(COc2nc3ccc(C(=O)NCCCc4ncc[nH]4)cc3nc2-c2ccc(F)cc2)CC1 [Compound I-327, 3-(4-fluorophenyl)-N-[3-(1H-imidazol-2-yl)propyl]-2-[(1-methylpiperidin-4-yl)methoxy]quinoxaline-6-carboxamide]	< 100 nM	> 99%	2%
O=C(NCCCc1ncc[nH]1)c1ccc2nc(-c3ccc(F)cc3)c(-c3cccc(C(F)(F)F)c3)nc2c1 [Compound I-328, 2-(4-fluorophenyl)-N-[3-(1H-imidazol-2-yl)propyl]-3-[3-(trifluoromethyl)phenyl]quinoxaline-6-carboxamide]	100 to 500 nM	84%	3%
O=C(NCCCc1ncc[nH]1)c1ccc2nc(OCC3CCC3)c(-c3ccc(F)cc3)nc2c1 [Compound I-329, 2-(cyclobutylmethoxy)-3-(4-fluorophenyl)-N-[3-(1H-imidazol-2-yl)propyl]quinoxaline-6-carboxamide]	< 100 nM	95%	3%
